Where a name gives a salt, the structure may show the parent alone.
Key:
human FLAP = human FLAP (Homo sapiens (Human), UniProt P20292); assay: FLAP binding assay (HTRF); conditions: human FLAP-containing membranes, HTRF format; average of two assay plates, duplicates; read-out: FLAP Binding wild type HTRF Ki
Outline: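 HTRF ratio read-out; two independent plates, samples in duplicate on each, values averaged across plates.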

[1] = tested on: leukotriene pathway in human whole blood (LTB4 levels); assay: Human whole blood assay (LTB4); type: cell-based; conditions: human whole blood diluted 1:1 in RPMI, stimulated with calcium ionophore A23187; single replicate
Outline: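 Blood (heparin) diluted 1:1 RPMI; compound pre-incubation 15 min, 37° Celsius; A23187 7 μg/mL, 30 min, 37° Celsius; plasma LTB4 by commercial kit. IC50 via 4-parameter equation.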

human FLAP, sequence (P20292 whole entry): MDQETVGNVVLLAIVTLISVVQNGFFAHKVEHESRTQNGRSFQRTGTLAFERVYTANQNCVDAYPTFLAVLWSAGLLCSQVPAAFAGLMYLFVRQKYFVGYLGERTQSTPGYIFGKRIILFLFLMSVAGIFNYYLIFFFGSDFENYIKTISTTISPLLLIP

| Ki (human FLAP) [nM] | IC50 [1] [nM] | SMILES |
| --- | --- | --- |
| 6 | 40.7 | COc1cc(Oc2c(C3CCC3)ccc(-c3cnc(N)cn3)c2F)nc(N)n1 [Example 99, 4-[3-(5-Aminopyrazin-2-yl)-6-cyclobutyl-2-fluorophenoxy]-6-methoxypyrimidin-2-amine] |
| 205 | 268 | NC(=O)c1ccnc(Oc2c(C3CCC3)ccc(-c3cnc(N)nc3)c2F)n1 [Example 169, 2-[3-(2-Aminopyrimidin-5-yl)-6-cyclobutyl-2-fluorophenoxy]pyrimidine-4-carboxamide] |
| 394 | 1660 | COc1c(C2CCC2)ccc(-c2ncc(N)nc2C#N)c1F [Example 172, 6-amino-3-(4-cyclobutyl-2-fluoro-3-methoxyphenyl)pyrazine-2-carbonitrile] |
| 9.8 | 1140 | CS(=O)(=O)c1ccc(COc2c(C3CCC3)ccc(-c3cnc4c(c3)OCCN4)c2F)cc1 [Example 189, 7-(4-Cyclobutyl-2-fluoro-3-{[4-(methylsulfonyl)-benzyl]-oxy}-phenyl)-3,4-dihydro-2H-pyrido[3,2-b][1,4]oxazine] |
| 286 | 588 | Nc1cnc(-c2ccc(C3CCC3)c(OCc3ccc(C(F)(F)F)cc3)c2F)cn1 [Example 1, 5-(4-Cyclobutyl-2-fluoro-3-{[4-(trifluoromethyl)benzyl]oxy}phenyl)-pyrazin-2-amine] |
| 101 | 370 | COC(=O)c1coc(COc2c(C3CCC3)ccc(-c3cnc(N)cn3)c2F)n1 [Example 281, Methyl 2-{[3-(5-aminopyrazin-2-yl)-6-cyclobutyl-2-fluorophenoxy]methyl}-1,3-oxazole-4-carboxylate trifluoroacetic acid salt] |
| 36 | 345 | Nc1cnc(-c2ccc(C3CCC3)c(OCC(O)CNc3cnccn3)c2F)cn1 (racemic) [Example 57, racemic 1-(3-(5-Aminopyrazin-2-yl)-6-cyclobutyl-2-fluorophenoxy)-3-(pyrazin-2-ylamino)propan-2-ol] |
| 18 | 737 | Nc1cnc(-c2ccc(C3CCC3)c(OCC3CC3)c2F)cn1 [Example 72, 5-[4-Cyclobutyl-3-(cyclopropylmethoxy)-2-fluorophenyl]pyrazin-2-amine] |
| 3.7 | 51 | Nc1cnc(-c2ccc(C3CCC3)c(Oc3ccnc(Cl)n3)c2F)cn1 [Example 137, 5-{3-[(2-Chloropyrimidin-4-yl)oxy]-4-cyclobutyl-2-fluorophenyl}pyrazin-2-amine] |
| 3.7 | 84.1 | Nc1cnc(-c2ccc(C3CCC3)c(Oc3ccnc(N)n3)c2F)cn1 [Example 130, 4-[3-(5-Aminopyrazin-2-yl)-6-cyclobutyl-2-fluorophenoxy]pyrimidin-2-amine] |
| 8.5 | 332 | COc1cc(Oc2c(C3CCC3)ccc(-c3cnc4c(c3)OCCN4)c2F)ncn1 [Example 227, 7-(4-cyclobutyl-2-fluoro-3-((6-methoxypyrimidin-4-yl)oxy)phenyl)-3,4-dihydro-2H-pyrido[3,2-b][1,4]oxazine] |
| 3.8 | 10.1 | Nc1cnc(-c2ccc(C3CCC3)c(Oc3nccnc3N)c2F)cn1 [Example 258, 3-(3-(5-Aminopyrazin-2-yl)-6-cyclobutyl-2-fluorophenoxy)pyrazin-2-amine] |
| 5.4 | 1210 | N#Cc1nc(N)cnc1-c1ccc(C2CCC2)c(OCc2cccc(C(=O)O)c2)c1F [Example 174, 3-{[3-(5-Amino-3-cyanopyrazin-2-yl)-6-cyclobutyl-2-fluorophenoxy]methyl}benzoic acid] |
| 14.8 | 181 | N#Cc1ncccc1Oc1c(C2CCC2)ccc(-c2cnc(N)cn2)c1F [Example 112, 3-[3-(5-Aminopyrazin-2-yl)-6-cyclobutyl-2-fluorophenoxy]pyridine-2-carbonitrile] |
| 315 | 832 | Nc1cnc(-c2ccc(C3CCC3)c(OCC(O)Cn3cncn3)c2F)cn1 (racemic) [Example 62, racemic 1-(3-(5-Aminopyrazin-2-yl)-6-cyclobutyl-2-fluorophenoxy)-3-(1H-1,2,4-triazol-1-yl)propan-2-ol] |
| 138 | 645 | Nc1cnc(-c2ccc(C3CCC3)c(OCC(O)Cn3ncccc3=O)c2F)cn1 (racemic) [Example 53, racemic 2-(3-(3-(5-Aminopyrazin-2-yl)-6-cyclobutyl-2-fluorophenoxy)-2-hydroxypropyl)pyridazin-3(2H)-one] |

| Ki (human FLAP) [nM] | IC50 [1] [nM] | SMILES |
| --- | --- | --- |
| 2.2 | 37.1 | Cc1cc(Oc2c(C3CCC3)ccc(-c3cnc(N)cn3)c2F)nc(N(C)C)n1 [Example 236, 4-(3-(5-Aminopyrazin-2-yl)-6-cyclobutyl-2-fluorophenoxy)-N,N,6-trimethylpyrimidin-2-amine] |
| 100 | 1280 | COc1c(C2CCC2)ccc(-c2cnc3[nH]ccc3n2)c1F [Example 175, 2-(4-cyclobutyl-2-fluoro-3-methoxyphenyl)-5H-pyrrolo[2,3-b]pyrazine] |
| 296 | 909 | Nc1cnc(-c2ccc(C3CCC3)c(OCC(O)Cn3ccncc3=O)c2F)cn1 (racemic) [Example 54, racemic 1-(3-(3-(5-Aminopyrazin-2-yl)-6-cyclobutyl-2-fluorophenoxy)-2-hydroxypropyl)pyrazin-2(1H)-one] |
| 2.5 | 68.4 | Fc1c(-c2cnc3c(c2)OCCN3)ccc(C2CCC2)c1Oc1ncccn1 [Example 225, 7-(4-cyclobutyl-2-fluoro-3-(pyrimidin-2-yloxy)phenyl)-3,4-dihydro-2H-pyrido[3,2-b][1,4]oxazine] |
| 100 | > 10000 | Nc1cnc(-c2ccc(C3CCC3)c(OCc3ccccn3)c2F)cn1 [Example 24, 5-[4-Cyclobutyl-2-fluoro-3-(pyridin-2-ylmethoxy)phenyl]pyrazin-2-amine] |
| 3.5 | 45.9 | Nc1cnc(-c2ccc(C3CCC3)c(Oc3cc(N)ncn3)c2F)cn1 [Example 136, 6-[3-(5-Aminopyrazin-2-yl)-6-cyclobutyl-2-fluorophenoxy]pyrimidin-4-amine] |
| 2.9 | 168 | Fc1c(-c2cnc3c(c2)OCCN3)ccc(C2CCC2)c1Oc1cccc(C(F)(F)F)n1 [Example 194, 7-(4-Cyclobutyl-2-fluoro-3-{[6-(trifluoromethyl)pyridin-2-yl]oxy}phenyl)-3,4-dihydro-2H-pyrido[3,2-b][1,4]oxazine] |
| 1.3 | 112 | CC(C)(C)OC(=O)NCCNc1ccnc(Oc2c(C3CCC3)ccc(-c3cnc(N)cn3)c2F)n1 [Example 149, tert-Butyl [2-({2-[3-(5-aminopyrazin-2-yl)-6-cyclobutyl-2-fluorophenoxy]pyrimidin-4-yl}amino)ethyl]carbamate] |
| 1.4 | 90.1 | Nc1ccnc(Oc2c(C3CCC3)ccc(-c3cnc4c(c3)OCCN4)c2F)n1 [Example 226, 2-(6-cyclobutyl-3-(3,4-dihydro-2H-pyrido[3,2-b][1,4]oxazin-7-yl)-2-fluorophenoxy)pyrimidin-4-amine] |
| 155 | 571 | CCOC(=O)c1c(C(F)(F)F)nn(C)c1Oc1c(C2CCC2)ccc(-c2cnc(N)cn2)c1F [Example 238, Ethyl 5-(3-(5-aminopyrazin-2-yl)-6-cyclobutyl-2-fluorophenoxy)-1-methyl-3-(trifluoromethyl)-1H-pyrazole-4-carboxylate] |
| 262 | 697 | Nc1cnc(-c2ccc(C3CCC3)c(OCC(O)Cn3ccnc3)c2F)cn1 (racemic) [Example 61, racemic 1-(3-(5-Aminopyrazin-2-yl)-6-cyclobutyl-2-fluorophenoxy)-3-(1H-imidazol-1-yl)propan-2-ol] |
| 1.2 | 20.7 | Nc1cnc(-c2ccc(C3CCC3)c(Oc3nccc(N4CCC5(CC4)OCCCO5)n3)c2F)cn1 [Example 241, 5-(3-((4-(1,5-dioxa-9-azaspiro[5.5]undecan-9-yl)pyrimidin-2-yl)oxy)-4-cyclobutyl-2-fluorophenyl)pyrazin-2-amine] |
| 176 | 3590 | NCCNc1nccc(Oc2c(C3CCC3)ccc(-c3cnc(N)cn3)c2F)n1 [Example 150, N-{4-[3-(5-Aminopyrazin-2-yl)-6-cyclobutyl-2-fluorophenoxy]pyrimidin-2-yl}ethane-1,2-diamine] |
| 20.6 | 109 | NC(=O)c1ccnc(Oc2c(C3CCC3)ccc(-c3cnc(N)cn3)c2F)n1 [Example 157, 2-[3-(5-Aminopyrazin-2-yl)-6-cyclobutyl-2-fluorophenoxy]pyrimidine-4-carboxamide] |
| 1.9 | 65.4 | N#Cc1cccc(Oc2c(C3CCC3)ccc(-c3cnc(N)cn3)c2F)n1 [Example 111, 6-[3-(5-Aminopyrazin-2-yl)-6-cyclobutyl-2-fluorophenoxy]pyridine-2-carbonitrile] |

| SMILES | Ki (human FLAP) [nM] | IC50 [1] [nM] |
| --- | --- | --- |
| CC(C)(C)c1ccc(-c2cnc(N)cn2)c(F)c1O[Si](C)(C)C(C)(C)C [Example 200, 5-(4-tert-Butyl-3-{[tert-butyl(dimethyl)silyl]oxy}-2-fluorophenyl)pyrazin-2-amine] | 155 | 1360 |
| Nc1cnc(-c2ccc(C3CCC3)c(OCCNc3ncccn3)c2F)cn1 [Example 296, N-{2-[3-(5-Aminopyrazin-2-yl)-6-cyclobutyl-2-fluorophenoxy]ethyl}pyrimidin-2-amine trifluoroacetic acid salt] | 6.8 | 350 |
| CC(C)CNc1nccc(Oc2c(C3CCC3)ccc(-c3cnc(N)cn3)c2F)n1 [Example 261, 4-(3-(5-Aminopyrazin-2-yl)-6-cyclobutyl-2-fluorophenoxy)-N-isobutylpyrimidin-2-amine trifluoroacetic acid salt] | 1.3 | 40.1 |

From patent US9073876B2, “Flap modulators” (JANSSEN PHARMACEUTICA NV, priority 2013, dated 2015)
